Reference: ChEMBL document CHEMBL3045472, “Synthesis and evaluation of some novel methylene-bridged aryl semicarbazones as potential anticonvulsant agents” (Med Chem Res, 2012)

Legend:
Mus musculus [1] = assay: Anticonvulsant activity in pentylenetetrazole-induced Mus musculus albino (mouse) seizure model assessed as survival at 50 mg/kg, ip administered 30 min followed by pentylenetetrazole induction measured for 30 min relative to control; type: functional; conditions: 0.5 h, route intraperitoneal
Mus musculus [2] = assay: Anticonvulsant activity in pentylenetetrazole-induced Mus musculus albino (mouse) seizure model assessed as survival at 100 mg/kg, ip administered 30 min followed by pentylenetetrazole induction measured for 30 min relative to control; type: functional; conditions: 0.5 h, route intraperitoneal
Mus musculus [3] = assay: Anticonvulsant activity in Mus musculus albino (mouse) assessed as protection against pentylenetetrazole-induced seizure at 100 mg/kg, ip administered 30 min followed by pentylenetetrazole induction measured for 30 min relative to control; type: functional; conditions: route intraperitoneal
Mus musculus [4] = assay: Anticonvulsant activity in Mus musculus albino (mouse) assessed as decrease in pentylenetetrazole-induced total seizure time at 300 mg/kg, ip administered 30 min followed by pentylenetetrazole induction measured for 30 min (reference value: 9.9 +/- 1.3 secs); type: functional; conditions: route intraperitoneal
Mus musculus [5] = assay: Anticonvulsant activity in Mus musculus albino (mouse) assessed as decrease in pentylenetetrazole-induced total seizure time at 100 mg/kg, ip administered 30 min followed by pentylenetetrazole induction measured for 30 min (reference value: 9.9 +/- 1.3 secs); type: functional; conditions: route intraperitoneal
Mus musculus [6] = assay: Anticonvulsant activity in Mus musculus albino (mouse) assessed as increase in onset of pentylenetetrazole-induced seizure at 100 mg/kg, ip administered 30 min followed by pentylenetetrazole induction measured for 30 min (reference value: 184 +/- 32 secs); type: functional; conditions: route intraperitoneal
Mus musculus [7] = assay: Anticonvulsant activity in pentylenetetrazole-induced Mus musculus albino (mouse) seizure model assessed as survival at 300 mg/kg, ip administered 30 min followed by pentylenetetrazole induction measured for 30 min relative to control; type: functional; conditions: 0.5 h, route intraperitoneal
Mus musculus [8] = assay: Anticonvulsant activity in Mus musculus albino (mouse) assessed as increase in onset of pentylenetetrazole-induced seizure at 300 mg/kg, ip administered 30 min followed by pentylenetetrazole induction measured for 30 min (reference value: 184 +/- 32 secs); type: functional; conditions: route intraperitoneal
Mus musculus [9] = assay: Anticonvulsant activity in Mus musculus albino (mouse) assessed as protection against pentylenetetrazole-induced seizure at 50 mg/kg, ip administered 30 min followed by pentylenetetrazole induction measured for 30 min relative to control; type: functional; conditions: route intraperitoneal
Mus musculus [10] = assay: Anticonvulsant activity in pentylenetetrazole-induced Mus musculus albino (mouse) seizure model assessed as death time at 50 mg/kg, ip administered 30 min followed by pentylenetetrazole induction measured for 30 min (reference value: 416 +/- 58.2 secs); type: functional; conditions: route intraperitoneal
Mus musculus [11] = assay: Anticonvulsant activity in Mus musculus albino (mouse) assessed as protection against pentylenetetrazole-induced seizure at 300 mg/kg, ip administered 30 min followed by pentylenetetrazole induction measured for 30 min relative to control; type: functional; conditions: route intraperitoneal
Mus musculus [12] = assay: Anticonvulsant activity in pentylenetetrazole-induced Mus musculus albino (mouse) seizure model assessed as death time at 100 mg/kg, ip administered 30 min followed by pentylenetetrazole induction measured for 30 min (reference value: 416 +/- 58.2 secs); type: functional; conditions: route intraperitoneal
Mus musculus [13] = assay: Anticonvulsant activity in Mus musculus albino (mouse) assessed as decrease in pentylenetetrazole-induced total seizure time at 50 mg/kg, ip administered 30 min followed by pentylenetetrazole induction measured for 30 min (reference value: 9.9 +/- 1.3 secs); type: functional; conditions: route intraperitoneal
Mus musculus [14] = assay: Anticonvulsant activity in Mus musculus albino (mouse) assessed as increase in onset of pentylenetetrazole-induced seizure at 50 mg/kg, ip administered 30 min followed by pentylenetetrazole induction measured for 30 min (reference value: 184 +/- 32 secs); type: functional; conditions: route intraperitoneal
Mus musculus [15] = assay: Anticonvulsant activity in pentylenetetrazole-induced Mus musculus albino (mouse) seizure model assessed as death time at 300 mg/kg, ip administered 30 min followed by pentylenetetrazole induction measured for 30 min (reference value: 416 +/- 58.2 secs); type: functional; conditions: route intraperitoneal
Mus musculus [16] = assay: Neurotoxicity in Mus musculus albino (mouse) assessed as minimal motor impairment at 300 mg/kg, ip measured for 180 secs by rotorod test; type: toxicity, organism-based; design: dose 300 mg/kg, route intraperitoneal; conditions: in vivo, 0.05 h

Compound | survival at 50 mg/kg (Mus musculus [1]) [%] | survival at 100 mg/kg (Mus musculus [2]) [%] | Activity (Mus musculus [3]) [%] | Time (Mus musculus [4]) [s] | Time (Mus musculus [5]) [s] | Time (Mus musculus [6]) [s] | survival at 300 mg/kg (Mus musculus [7]) [%] | Time (Mus musculus [8]) [s] | Activity (Mus musculus [9]) [%] | Time (Mus musculus [10]) [s] | Activity (Mus musculus [11]) [%] | Time (Mus musculus [12]) [s] | Time (Mus musculus [13]) [s] | Time (Mus musculus [14]) [s] | Time (Mus musculus [15]) [s] | Activity (Mus musculus [16])
O=C(CNc1ccc(Br)cc1)N/N=C/c1ccccc1O | 25 | 100 | 25 | 6.6 | 7.7 | 724 | 100 | 884 | 25 | 832 | 38 | 1800 | 8.6 | 562 | 1800 | 
CC(C)=NNC(=O)CNc1ccc(Br)cc1 |  | 25 | 0 | 3.3 | 10 | 224 | 64 | 1098 |  |  | 45 | 945 |  |  | 1428 | 
O=C(CNc1ccc(Br)cc1)N/N=C/c1ccccc1[N+](=O)[O-] |  | 38 | 0 | 2.8 | 11 | 144 | 33 | 1073 |  |  | 33 | 897 |  |  | 1265 | 
C/C(=N\NC(=O)CNc1ccc(Br)cc1)c1ccccc1 |  | 86 | 14 | 3.1 | 11 | 498 | 50 | 915 |  |  | 38 | 1577 |  |  | 1161 | 
CCOc1ccc(NCC(=O)N/N=C/c2ccccc2O)cc1 | 33 | 12 | 0 | 6.4 | 11 | 275 | 0 | 616 | 22 | 1055 | 0 | 659 | 5.2 | 903 | 896 | 
O=C(CNc1ccc(Br)cc1)N/N=C/c1ccc([N+](=O)[O-])cc1 | 50 | 62 | 0 | 3.8 | 6.1 | 640 | 62 | 809 | 16 | 1122 | 38 | 1400 | 3.7 | 596 | 1456 | 
CCOc1ccc(NCC(=O)N/N=C/c2ccccc2[N+](=O)[O-])cc1 |  | 12 | 0 | 6.8 | 8.7 | 275 | 14 | 626 |  |  | 14 | 1011 |  |  | 734 | 
CCOc1ccc(NCC(=O)N/N=C/c2ccc([N+](=O)[O-])cc2)cc1 | 67 | 50 | 16 | 5.2 | 5.3 | 603 | 44 | 885 | 16 | 1528 | 22 | 1137 | 7.3 | 643 | 1286 | Toxic
CCOc1ccc(NCC(=O)N/N=C(/C)c2ccccc2)cc1 |  | 0 | 0 | 5.8 | 5.9 | 243 | 0 | 414 |  |  | 0 | 310 |  |  | 483 | 
CCOc1ccc(NCC(=O)N/N=C/c2ccccc2Cl)cc1 |  | 43 | 14 | 9.3 | 8.5 | 436 | 12 | 590 |  |  | 0 | 1189 |  |  | 651 | 
O=C(CNc1ccc(Br)cc1)N/N=C/c1ccccc1Cl |  | 25 | 0 | 4.5 | 6.4 | 403 | 29 | 514 |  |  | 14 | 885 |  |  | 781 | 
CCOc1ccc(NCC(=O)NN=C(C)C)cc1 |  | 0 | 0 | 4.2 | 4.9 | 373 | 0 | 425 |  |  | 0 | 623 |  |  | 606 | 
